In paper PMC5556071, “ATR inhibition facilitates targeting of leukemia dependence on convergent nucleotide biosynthetic pathways” (Nature Communications, 2017):

Columns and labels:
CEM T-ALL cells = experiment: ssDNA (F7-26) and pH2A.X flow cytometry; format: cell-based, human
Method: Treated CEM T-ALL cells were fixed with ice-cold methanol:PBS (6:1 v/v). Staining with F7-26 ssDNA monoclonal antibody (mouse) was performed according to manufacturer’s instructions (EMD Millipore, #MAB3299) followed by secondary antibody IgM-PE. Subsequently, cells were stained with the phospho-Histone H2A.X (pS139 H2A.X) specific antibody conjugated to FITC (EMD Millipore, #05-636) and DAPI, and then analyzed by flow cytometry (a detailed description is available in the Supplementary Information).
(525→383). The peak areas for each drug (precursor→fragment ion transitions) at predetermined retention times were recorded using the software supplied by the instrument manufacturer (Agilent MassHunter).
Cell cycle histograms. Cells were plated at a density of 0.5 x 10^6 cells/mL in respective media or drug treated media. […]
Cell cycle kinetics and cell cycle progression by intracellular detection of DNA-incorporated 5-ethynyl-2-deoxyuridine (EdU). […] The total DNA content was assessed by staining the samples with FxCycle-Violet (Invitrogen, #F10347) at 1 µg/mL final concentration in PBS containing 2% FBS. […] Total DNA content was assessed by staining with FxCycle-Violet (Invitrogen) at 1 µg/mL final concentration in PBS containing 2% FBS. pH2A.X staining. […]
Measurement of ssDNA levels using the F7-26 monoclonal antibody. […] Cells were washed with PBS and stained with 100 µL of fluorescence-conjugated […]

CHEK1 pS345 = experiment: Western blot of replication stress marker in CEM cells; format: cell-based, human
Method: Cells were lysed using RIPA buffer supplemented with protease (ThermoFisher, 78,430) and phosphatase (ThermoFisher, 78,420) inhibitors, scraped, sonicated, and centrifuged (20,000 × g at 4 °C). Protein concentrations in the supernatant were determined using the Micro BCA Protein Assay kit (Thermo), and equal amounts of protein were resolved on pre-made Bis-Tris polyacrylamide gels (Life Technologies). Primary antibodies: pS345 CHEK1 (Cell signaling, #2348 L, 1:1000), pT68 CHEK2 (Cell signaling, #2197 S, 1:1000), pS139 H2A.X (Millipore, 05-636, 1:1000), clvd. Casp8 (Cell signaling, #8592, 1:1000), clvd. Casp9 (Cell signaling, #9502, 1:1000), clvd. Casp3 (Cell signaling, #9662, 1:1000), clvd. PARP (Cell signaling, #5625 P, 1:1000), and anti-actin (Cell Signaling Technology, 9470, 1:10,000). Primary antibodies were stored in 5% BSA (Sigma-Aldrich) and 0.1% NaN3 in TBST solution. Anti-rabbit IgG HRP-linked (Cell Signaling Technology, 7074, 1:2500) and anti-mouse IgG HRP-linked (Cell Signaling Technology, 7076, 1:2500) were used as secondary antibodies. Chemiluminescent substrates (ThermoFisher Scientific, 34,077 and 34,095) and autoradiography film (Denville) were used for detection.

Structure (SMILES) | increase of the percentage of ssDNA+ cells (CEM T-ALL cells; 0.5 h after treatment) | increase of the percentage of ssDNA+ cells (CEM T-ALL cells; 4 h time point) | CHEK1 pS345 induced by RNR inhibition (CHEK1 pS345; 0.5 h time point) | CHEK1 pS345 induced by RNR inhibition (CHEK1 pS345; 4 h time point) | CHEK1 pS345 levels (CHEK1 pS345; CEM cells, VE-822 1 µM, 24 h)
NC(=S)N/N=C/c1ncccc1N [3-AP] | more than two-fold | greater than three-fold |  |  | 
CNCc1ccc(-c2cc(-c3nc(-c4ccc(S(=O)(=O)C(C)C)cc4)cnc3N)on2)cc1 [VE-822] |  |  | abrogated | partially inhibited | reduced
